Results published in PubChem BioAssay AID2060350 (Molecular Pharmacology Branch, DTP, NCI, 2025).

Tested on: PDC 521955-158-R6-J3 spheroids, viability
Test: Anticancer human tumor 521955-158-R6-J3-PDC patient-derived pancreatic carcinoma cell line growth inhibition [TAK]
Conditions: spheroids with HUVEC and MSC; for IC50: curve of first compound; for viability, T/C: stronger effect = lower value; active = viability on the fitted dose curve at most 10% of control; inactive = the rest
Outline: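 Drug combinations, each paired with TAK-243 or ipatasertib, were tested on multi-cell spheroids of 60% malignant cells, 25% HUVEC and 15% hMSC. Top concentrations were at or near the clinical Cmax (10 microM if undetermined), decreasing by half-log; viability is given as % test/control.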
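Note: spheroids exposed to drugs for 7 days before readout.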
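Throughout, for viability, T/C: 100% = DMSO vehicle control viability.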

CC(C)CC(NC(=O)CNC(=O)c1cc(Cl)ccc1Cl)B1OC(=O)CC(CC(=O)O)(C(=O)O)O1 (stereo not given) + CC(C)NCC(C(=O)N1CCN(c2ncnc3c2C(C)CC3O)CC1)c1ccc(Cl)cc1
0.0418 µM: IC50 (second compound 9.49 µM)
0.0491 µM: IC50 (second compound 3 µM)
0.0543 µM: IC50 (second compound 0.949 µM)
0.0559 µM: IC50 (second compound 0.3 µM)
0.0336 µM: IC50 (second compound 30 µM)
active: viability, T/C (second compound 0.3 µM, first compound 0.1 µM) 6.28% | viability, T/C (second compound 0.949 µM, first compound 0.1 µM) 5.88% | viability, T/C (second compound 3 µM, first compound 0.1 µM) 3.93% | viability, T/C (second compound 9.49 µM, first compound 0.1 µM) 3.75% | viability, T/C (second compound 30 µM, first compound 0.1 µM) 2.76%
inactive: viability, T/C (second compound 0.3 µM, first compound 0.000316 µM) 86.8% | viability, T/C (second compound 0.3 µM, first compound 0.001 µM) 92.5% | viability, T/C (second compound 0.3 µM, first compound 0.00316 µM) 106% | viability, T/C (second compound 0.3 µM, first compound 0.01 µM) 97.8% | viability, T/C (second compound 0.3 µM, first compound 0.0316 µM) 92.9% | viability, T/C (second compound 0.949 µM, first compound 0.000316 µM) 84.3% | viability, T/C (second compound 0.949 µM, first compound 0.001 µM) 93.8% | viability, T/C (second compound 0.949 µM, first compound 0.00316 µM) 97.9% | viability, T/C (second compound 0.949 µM, first compound 0.01 µM) 100% | viability, T/C (second compound 0.949 µM, first compound 0.0316 µM) 89.1% | viability, T/C (second compound 3 µM, first compound 0.000316 µM) 86.3% | viability, T/C (second compound 3 µM, first compound 0.001 µM) 90.7% | viability, T/C (second compound 3 µM, first compound 0.00316 µM) 92.6% | viability, T/C (second compound 3 µM, first compound 0.01 µM) 104% | viability, T/C (second compound 3 µM, first compound 0.0316 µM) 78.7% | viability, T/C (second compound 9.49 µM, first compound 0.000316 µM) 92.7% | viability, T/C (second compound 9.49 µM, first compound 0.001 µM) 92.5% | viability, T/C (second compound 9.49 µM, first compound 0.00316 µM) 96.9% | viability, T/C (second compound 9.49 µM, first compound 0.01 µM) 98% | viability, T/C (second compound 9.49 µM, first compound 0.0316 µM) 65% | viability, T/C (second compound 30 µM, first compound 0.000316 µM) 82.3% | viability, T/C (second compound 30 µM, first compound 0.001 µM) 85.2% | viability, T/C (second compound 30 µM, first compound 0.00316 µM) 85% | viability, T/C (second compound 30 µM, first compound 0.01 µM) 99.5% | viability, T/C (second compound 30 µM, first compound 0.0316 µM) 52.7%
